This passage reports solubility, TYK2 inhibition and JAK1 inhibition results from patent publication US20260060973A1, “Ophthalmic Composition for Treating Non-Infectious Inflammatory Diseases” (VIVAVISION BIOTECH LTD., priority 2023, published 2026).

One series in a line: Solubility in water. It is filed as physicochemical.
For another series, the target named is tyrosine kinase 2 (TYK2) (Homo sapiens, UniProt P29597). In words: Mechanism of action of VVN461. It is filed as biochemical. From the text:
(§1) JAK- or TYK-dependent cytokines are associated with non-infectious inflammatory diseases (e.g., uveitis or other ocular diseases), which is a potential therapeutic target for immune-mediated uveitis. VVN461 can target both Janus kinase 1 (JAK1) and tyrosine kinase 2 (TYK2), target JAK/TYK-dependent cytokines, and inhibit Janus kinase (JAK)/signal transducer and activation of transcription (STAT) pathway, and thus can be used for the treatment of non-infectious inflammatory diseases such as uveitis. […] These phosphorylated receptor residues that act as binding sites for STAT proteins are activated by the phosphorylation of the JAKs, so that STAT proteins are dimerized and translocated to the nucleus of the cell, thereby bind to specific DNA sites and regulate gene expression, which in turn leads to inflammation. In contrast, VVN461 of the present application can target JAK/TYK-dependent cytokines and inhibit the JAK/STAT pathway, and thus can be used for the treatment of non-infectious inflammatory diseases such as uveitis.

The target in the next series is Janus kinase 1 (JAK1) (Homo sapiens, UniProt P23458). Kind of series: Mechanism of action of VVN461. It is filed as biochemical.
Description: as §1

SMILES strings stand for the structures. “Also recorded” adds a separate entry of the source.

Chain of Janus kinase 1 (JAK1) (P23458 whole entry, species assumed): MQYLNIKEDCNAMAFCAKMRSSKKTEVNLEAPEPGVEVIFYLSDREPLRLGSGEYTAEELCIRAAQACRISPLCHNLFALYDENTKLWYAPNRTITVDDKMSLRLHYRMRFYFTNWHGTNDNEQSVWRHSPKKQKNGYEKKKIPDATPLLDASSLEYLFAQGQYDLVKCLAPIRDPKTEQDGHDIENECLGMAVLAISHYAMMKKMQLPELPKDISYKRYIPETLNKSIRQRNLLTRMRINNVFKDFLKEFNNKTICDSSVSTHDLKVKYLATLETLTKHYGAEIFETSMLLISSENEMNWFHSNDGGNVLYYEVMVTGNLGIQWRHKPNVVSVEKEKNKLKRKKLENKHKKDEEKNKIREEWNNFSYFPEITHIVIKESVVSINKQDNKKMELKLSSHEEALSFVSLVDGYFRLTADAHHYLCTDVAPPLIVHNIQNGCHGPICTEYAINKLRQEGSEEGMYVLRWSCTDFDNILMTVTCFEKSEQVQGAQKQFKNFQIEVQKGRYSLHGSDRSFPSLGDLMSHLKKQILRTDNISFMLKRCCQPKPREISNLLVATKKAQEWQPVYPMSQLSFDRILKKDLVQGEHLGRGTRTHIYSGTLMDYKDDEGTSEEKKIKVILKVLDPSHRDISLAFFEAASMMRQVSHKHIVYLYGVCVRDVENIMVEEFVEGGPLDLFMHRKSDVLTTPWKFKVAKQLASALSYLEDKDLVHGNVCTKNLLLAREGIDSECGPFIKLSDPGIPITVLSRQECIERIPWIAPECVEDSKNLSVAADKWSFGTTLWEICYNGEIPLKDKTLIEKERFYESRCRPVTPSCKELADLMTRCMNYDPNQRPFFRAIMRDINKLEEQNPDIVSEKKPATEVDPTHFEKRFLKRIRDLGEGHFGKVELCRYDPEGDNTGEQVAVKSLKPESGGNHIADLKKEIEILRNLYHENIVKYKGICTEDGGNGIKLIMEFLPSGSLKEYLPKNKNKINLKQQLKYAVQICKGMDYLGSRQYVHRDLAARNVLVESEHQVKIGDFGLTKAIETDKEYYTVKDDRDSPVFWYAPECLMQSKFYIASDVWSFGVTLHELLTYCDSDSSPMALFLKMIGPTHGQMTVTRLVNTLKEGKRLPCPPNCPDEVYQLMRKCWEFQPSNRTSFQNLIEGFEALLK
Chain of tyrosine kinase 2 (TYK2) (P29597 whole entry, species assumed): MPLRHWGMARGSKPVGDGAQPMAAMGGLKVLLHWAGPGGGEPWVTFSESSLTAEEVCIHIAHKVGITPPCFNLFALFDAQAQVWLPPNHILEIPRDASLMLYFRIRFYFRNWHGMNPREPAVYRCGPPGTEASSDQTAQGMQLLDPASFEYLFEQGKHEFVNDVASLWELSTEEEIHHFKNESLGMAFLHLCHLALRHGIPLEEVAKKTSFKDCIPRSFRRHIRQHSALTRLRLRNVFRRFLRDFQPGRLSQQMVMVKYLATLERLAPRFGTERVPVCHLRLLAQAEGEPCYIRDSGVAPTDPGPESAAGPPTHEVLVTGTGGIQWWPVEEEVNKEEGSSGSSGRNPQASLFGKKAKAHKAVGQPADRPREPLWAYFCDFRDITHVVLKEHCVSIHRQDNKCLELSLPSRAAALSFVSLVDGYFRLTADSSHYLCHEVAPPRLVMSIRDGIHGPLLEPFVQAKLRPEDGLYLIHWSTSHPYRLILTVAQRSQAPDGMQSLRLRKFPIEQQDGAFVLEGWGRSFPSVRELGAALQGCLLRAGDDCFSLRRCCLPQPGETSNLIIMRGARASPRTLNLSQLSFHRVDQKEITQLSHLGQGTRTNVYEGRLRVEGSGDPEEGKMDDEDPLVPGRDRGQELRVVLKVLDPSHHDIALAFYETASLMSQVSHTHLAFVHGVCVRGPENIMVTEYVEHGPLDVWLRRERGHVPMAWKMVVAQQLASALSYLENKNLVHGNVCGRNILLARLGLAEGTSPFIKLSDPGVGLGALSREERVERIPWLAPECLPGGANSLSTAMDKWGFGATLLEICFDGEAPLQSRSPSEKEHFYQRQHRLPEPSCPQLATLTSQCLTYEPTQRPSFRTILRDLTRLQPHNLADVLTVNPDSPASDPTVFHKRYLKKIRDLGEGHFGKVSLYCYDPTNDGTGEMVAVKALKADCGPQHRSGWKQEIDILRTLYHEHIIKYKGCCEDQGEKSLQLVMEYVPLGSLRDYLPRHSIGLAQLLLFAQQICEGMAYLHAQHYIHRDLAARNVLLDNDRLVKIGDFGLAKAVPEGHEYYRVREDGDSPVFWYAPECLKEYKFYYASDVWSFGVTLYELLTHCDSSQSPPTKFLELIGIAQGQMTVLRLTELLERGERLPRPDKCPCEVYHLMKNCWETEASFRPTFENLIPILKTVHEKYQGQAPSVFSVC

`C[C@@H](O)c1nc2cnc3[nH]ccc3c2n1N1CCC(CC#N)CC1` [VVN461, (R)-2-(1-(2-(1-hydroxyethyl)imidazo[4,5-d]pyrrolo[2,3-b]pyridin-1(6H)-yl)piperidin-4-yl)acetonitrile]: the solubility entry in “Solubility in water” is “practically insoluble in water; also recorded: low water solubilities”. The TYK2 inhibition result at tyrosine kinase 2 (TYK2) is given as “dual JAK1/TYK2 inhibitor”. In addition, at Janus kinase 1 (JAK1), the JAK1 inhibition entry is recorded as “dual JAK1/TYK2 inhibitor”.
